Reference: patent US6875761B2 (Eisai Co., Ltd., priority 1997, dated 2005)
Where a name gives a salt, the structure may show the parent alone.

Assays:
serotonin 2 receptor = molecular target: T1, serotonin 2 receptor (Rattus norvegicus, UniProt P14842); experiment: Binding test on [3H] ketanserin, cerebral cortex receptor fraction; design: species or system SD rats; settings: 0.3 nM [3H] ketanserin, 37° C. 15 min, read-out: 5HT2
T1 construct: To the receptor fraction of the cerebral cortex were added a test compound and 0.3 nM of [^3H] ketanserin; from tissue; host or cells: rat cerebral cortex membrane fraction

serotonin 1A receptor = molecular target: T2, serotonin 1A receptor (Rattus norvegicus, UniProt P19327); experiment: Binding test on [3H] 8-hydroxy-dipropylaminotetralin, hippocampus receptor fraction; design: species or system SD rats; settings: rat hippocampus receptor fraction, 0.5 nM [3H] 8-OH-DPAT, room temperature 30 min; read-out: 5HT1
T2 construct: To the receptor fraction of the hippocampus were added a test compound and 0.5 nM of [^3H]; 8-hydroxy-dipropylaminotetralin; from tissue; host or cells: rat hippocampus membrane fraction
T2 sequence (P19327 1-422): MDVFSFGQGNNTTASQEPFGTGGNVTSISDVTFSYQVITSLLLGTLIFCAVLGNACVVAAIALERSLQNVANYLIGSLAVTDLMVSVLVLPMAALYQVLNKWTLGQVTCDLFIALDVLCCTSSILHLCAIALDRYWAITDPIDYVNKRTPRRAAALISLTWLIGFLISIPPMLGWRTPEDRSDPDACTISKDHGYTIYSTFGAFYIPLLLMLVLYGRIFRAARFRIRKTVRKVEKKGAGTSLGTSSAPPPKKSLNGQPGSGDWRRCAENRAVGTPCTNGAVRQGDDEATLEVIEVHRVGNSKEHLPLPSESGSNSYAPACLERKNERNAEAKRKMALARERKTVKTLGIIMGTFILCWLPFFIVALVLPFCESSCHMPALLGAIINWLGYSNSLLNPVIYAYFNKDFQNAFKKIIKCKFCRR

T1 sequence (P14842 whole entry): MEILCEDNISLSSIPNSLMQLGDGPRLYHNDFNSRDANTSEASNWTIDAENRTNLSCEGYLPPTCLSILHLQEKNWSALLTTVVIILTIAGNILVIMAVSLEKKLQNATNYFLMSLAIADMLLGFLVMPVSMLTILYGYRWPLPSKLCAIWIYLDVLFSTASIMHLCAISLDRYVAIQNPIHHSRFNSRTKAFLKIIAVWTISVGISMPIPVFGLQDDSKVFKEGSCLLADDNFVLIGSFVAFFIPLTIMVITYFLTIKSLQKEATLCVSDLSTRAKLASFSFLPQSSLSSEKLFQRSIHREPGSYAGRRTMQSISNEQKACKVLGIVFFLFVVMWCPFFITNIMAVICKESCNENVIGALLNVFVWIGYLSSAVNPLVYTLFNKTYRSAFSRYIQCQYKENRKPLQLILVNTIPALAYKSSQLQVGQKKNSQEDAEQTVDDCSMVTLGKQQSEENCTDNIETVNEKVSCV

Row | SMILES | Ki (serotonin 2 receptor) | Ki (serotonin 1A receptor)
1 | CCN1CCN(c2nc(NC(=O)c3ccccc3)cc3ccccc23)CC1 [Example 421, 3-benzamide-1-(4-ethylpiperazin-1-yl)isoquinoline] | 129 nM | 9.47 nM
2 | CCN1CCN(c2nc(NS(=O)(=O)c3ccccc3)cc3ccccc23)CC1 [Example 422, 3-benzenesulfoneamide-1-(4-ethylpiperazin-1-yl)isoquinoline] | 175 nM | 5.32 nM
3 | CCN1CCN(c2nc(NS(=O)(=O)c3ccc(OC)cc3)cc3ccccc23)CC1 [Example 423, 1-(4-ethylpiperazin-1-yl)-3-(4-methoxybenzenesulfonamide)isoquinoline] | 332 nM | 9.81 nM
4 | CCN1CCN(c2nc(COc3ccc(OC)cc3)cc3ccccc23)CC1 [Example 424, 1-(4-ethylpiperazin-1-yl)-3-(4-methoxyphenoxymethyl)isoquinoline Hydrochloride] | 1.93 nM | 61.6 nM
5 | CCN1CCN(c2nc(-c3ccc(OCCO)cc3OC)cc3ccccc23)CC1 [Example 425, 1-(4-ethylpiperazin-1-yl)-3-[4-(2-hydroxyethoxy)-2-methoxyphenyl]isoquinoline] | 2.55 nM | 321 nM
6 | CCN1CCN(c2nc(/C=C/c3ccc(OCCO)cc3)cc3ccsc23)CC1 [Example 431, 7-(4-ethylpiperazin-1-yl)-5-[4-(2-hydroxyethoxy)styryl]thieno[2,3-c]pyridine hydrochloride] | 2.11 nM | 1.98 nM
7 | CCN1CCN(c2nc(-c3ccc(CCCO)cc3)cc3ccsc23)CC1 [Example 432, 7-(4-ethylpiperazin-1-yl)-5-[4-(3-hydroxypropyl)phenyl]thieno[2,3-c]pyridine hydrochloride] | 28.5 nM | 1.98 nM
8 | CCN1CCN(c2nc(-c3ccc(OCCO)c(Cl)c3)cc3ccsc23)CC1 [Example 437, 7-(4-ethylpiperazin-1-yl)-5-[3-chloro-4-(2-hydroxyethoxy)phenyl]thieno[2,3-c]pyridine] | 18.1 nM | 30.5 nM
9 | CCN1CCN(c2nc(-c3ccc(CC(C)CO)cc3)cc3ccsc23)CC1 (stereo not drawn) [Example 441, 7-(4-ethylpiperazin-1-yl)-5-[4-(3-hydroxy-2-methylpropyl)phenyl]thieno[2,3-c]pyridine dihydrochloride] | 0.41 nM | 15.2 nM
10 | CCN1CCN(c2nc(-c3ccc(C(C)(C)CCO)cc3)cc3ccsc23)CC1 [Example 443, 7-(4-ethylpiperazin-1-yl)-5-[4-(3-hydroxy-1,1-dimethylpropyl)phenyl]thieno[2,3-c]pyridine dihydrochloride] | 1.85 nM | 10.2 nM
11 | CCN1CCN(c2nc(-c3ccc(SC[C@@H](C)O)cc3)cc3ccsc23)CC1 [Example 444, 7-(4-ethylpiperazin-1-yl)-5-[4-(2-hydroxypropylthio)phenyl]thieno[2,3-c]pyridine dihydrochloride] | 12 nM | 43.2 nM
12 | CCN1CCN(c2nc(-c3ccc(S(C)(=O)=O)cc3)cc3ccsc23)CC1 [Example 445, 7-(4-ethylpiperazin-1-yl)-5-(4-methanesulfonylphenyl)thieno)[2,3-c]pyridine dihydrochloride] | 90.4 nM | 5.46 nM
13 | CCCC(O)c1ccc(-c2cc3ccsc3c(N3CCN(CC)CC3)n2)cc1 (stereo not drawn) [Example 446, 7-(4-ethylpiperazin-1-yl)-5-[4-(1-hydroxybutyl)phenyl]thieno[2,3-c]pyridine dihydrochloride] | 30 nM | 12.2 nM
14 | CCN1CCN(c2nc(-c3ccc(C(=O)NC4CCCC4)cc3)cc3ccsc23)CC1 [Example 453, 7-(4-ethylpiperazin-1-yl)-5-[4-(N-cyclopentylcarbamoyl)phenyl]thieno[2,3-c]pyridine dihydrochloride] | 45.4 nM | 22.2 nM
15 | CCN1CCN(c2nc(-c3ccc4c(c3)CC(C)(CO)O4)cc3ccsc23)CC1 (stereo not drawn) [Example 456, dihydrochloride] | 16.2 nM | 63.3 nM

The remaining compounds from weak to strong by Ki (serotonin 2 receptor), led by results:

Row | Ki (serotonin 2 receptor) | Ki (serotonin 1A receptor) | SMILES
16 | 346 nM | 22.6 nM | CCNC(=O)c1ccc(-c2cc3ccsc3c(N3CCN(CC)CC3)n2)cc1 [Example 448, 7-(4-ethylpiperazin-1-yl)-5-[4-(N-ethylcarbamoyl)phenyl]thieno[2,3-c]pyridine dihydrochloride]
17 | 300 nM | 80.9 nM | CCN1CCN(c2nc(-c3ccc(OC)cc3)nc3ccccc23)CC1 [Example 427, 4-(4-ethylpiperazin-1-yl)-2-(4-methoxyphenyl)quinazoline Dihydrochloride]
18 | 281 nM | 63.3 nM | CCN1CCN(c2nc(-c3ccc(C(O)C4CCCCC4)cc3)cc3ccsc23)CC1 (stereo not drawn) [Example 457, 7-(4-Ethylpiperazin-1-yl)-5-[4-(cyclohexylhydroxymethyl)phenyl]thieno[2,3-c]pyridine dihydrochloride]
19 | 93.1 nM | 75.4 nM | CCN1CCN(c2nc(-c3ccc(C(O)C4CCCC4)cc3)cc3ccsc23)CC1 (stereo not drawn) [Example 458, 7-(4-ethylpiperazin-1-yl)-5-[4-(cyclopentylhydroxymethyl)phenyl]thieno[2,3-c]pyridine dihydrochloride]
20 | 60.5 nM | 64.9 nM | CCN1CCN(c2nc(-c3ccc(OCCCO)cc3)cc3ccsc23)CC1 [Example 434, 7-(4-ethylpiperazin-1-yl)-5-[4-(3-hydroxypropoxy)phenyl]thieno[2,3-c]pyridine dihydrochloride]
21 | 43.8 nM | 24 nM | CCCNC(=O)c1ccc(-c2cc3ccsc3c(N3CCN(CC)CC3)n2)cc1 [Example 449, 7-(4-ethylpiperazin-1-yl)-5-[4-(N-propylcarbamoyl)phenyl]thieno[2,3-c]pyridine dihydrochloride]
22 | 37.9 nM | 7.72 nM | CCCS(=O)(=O)c1ccc(-c2cc3ccsc3c(N3CCN(CC)CC3)n2)cc1 [Example 451, 7-(4-ethylpiperazin-1-yl)-5-(4-propanesulfonylphenyl)thieno[2,3-c]pyridine dihydrochloride]
23 | 26 nM | 8.64 nM | CCN1CCN(c2nc(-c3ccc(CC(C)O)cc3)cc3ccsc23)CC1 (stereo not drawn) [Example 436, 7-(4-ethylpiperazin-1-yl)-5-[4-(2-hydroxypropyl)phenyl]thieno[2,3-c]pyridine dihydrochloride]
24 | 18.8 nM | 62.9 nM | CCN1CCN(c2nc(-c3ccc(O[C@@H](C)CO)cc3)cc3ccsc23)CC1 [Example 438, 7-(4-ethylpiperazin-1-yl)-5-[4-(1-methyl-2-hydroxyethoxy)phenyl]thieno[2,3-c]pyridine dihydrochloride]
25 | 15.2 nM | 6.89 nM | CCN1CCN(c2nc(-c3ccc(S(=O)(=O)CC)cc3)cc3ccsc23)CC1 [Example 450, 7-(4-ethylpiperazin-1-yl)-5-(4-ethanesulfonylphenyl)thieno[2,3-c]pyridine dihydrochloride]
26 | 11.7 nM | 2.48 nM | CCN1CCN(c2nc(/C=C/c3cccc(OCCO)c3)cc3ccsc23)CC1 [Example 430, 7-(4-ethylpiperazin-1-yl)-5-[3-(2-hydroxyethoxy)styryl]thieno [2,3-c]pyridine hydrochloride]
27 | 7.1 nM | 133 nM | CCN1CCN(c2nc(-c3ccc(OC4CCCCC4O)cc3)cc3ccccc23)CC1 (stereo not drawn) [Example 426, 1-(4-ethylpiperazin-1-yl)-3-[4-(2-hydroxycyclohexyloxy)phenyl]isoquinoline Hydrochloride]
28 | 7.04 nM | 19.6 nM | CCCCNC(=O)c1ccc(-c2cc3ccsc3c(N3CCN(CC)CC3)n2)cc1 [Example 452, 7-(4-ethylpiperazin-1-yl)-5-[4-(N-butylcarbamoyl)phenyl]thieno[2,3-c]pyridine dihydrochloride]
29 | 6.03 nM | 44.2 nM | CCN1CCN(c2nc(-c3ccc(CCC(C)(C)O)cc3)cc3ccsc23)CC1 [Example 439, 7-(4-ethylpiperazin-1-yl)-5-[4-(3-hydroxy-3-methylbutyl)phenyl]thieno[2,3-c]pyridine dihydrochloride]
30 | 3.53 nM | 20.6 nM | CCN1CCN(c2nc(-c3ccc(CCCO)c(OC)c3)cc3ccsc23)CC1 [Example 433, 7-(4-ethylpiperazin-1-yl)-5-[4-(3-hydroxypropyl)-3-methoxyphenyl]thieno[2,3-c]-pyridine hydrochloride]
31 | 2.66 nM | 23.2 nM | CCN1CCN(c2nc(-c3ccc(CC(C)(C)CO)cc3)cc3ccsc23)CC1 [Example 442, 7-(4-ethylpiperazin-1-yl)-5-[4-(3-hydroxy-2,2-dimethylpropyl)phenyl]thieno[2,3-c]pyridine dihydrochloride]
32 | 1.14 nM | 61.2 nM | CCN1CCN(c2nc(-c3ccc(OC[C@@H](C)O)cc3)cc3ccsc23)CC1 [Example 435, 7-(4-ethylpiperazin-1-yl)-5-[4-(2-hydroxypropoxy)phenyl]thieno[2,3-c]pyridine dihydrochloride]
33 | 0.72 nM | 21.8 nM | CCN1CCN(c2nc(-c3ccc(CCC(C)O)cc3)cc3ccsc23)CC1 (stereo not drawn) [Example 440, 7-(4-ethylpiperazin-1-yl)-5-[4-(3-hydroxybutyl)phenyl]thieno[2,3-c]pyridine dihydrochloride]
